{"source": "paper PMC3827198", "about": "“Characterisation of AmphiAmR11, an Amphioxus (Branchiostoma floridae) D2-Dopamine-Like G Protein-Coupled Receptor” (PLoS ONE, 2013)", "key": {"AmphiAmR11 [1]": {"molecular_target": "T1, AmphiAmR11 (Branchiostoma floridae, UniProt A0PF35)", "T1 sequence (A0PF35 entry or part of it)": "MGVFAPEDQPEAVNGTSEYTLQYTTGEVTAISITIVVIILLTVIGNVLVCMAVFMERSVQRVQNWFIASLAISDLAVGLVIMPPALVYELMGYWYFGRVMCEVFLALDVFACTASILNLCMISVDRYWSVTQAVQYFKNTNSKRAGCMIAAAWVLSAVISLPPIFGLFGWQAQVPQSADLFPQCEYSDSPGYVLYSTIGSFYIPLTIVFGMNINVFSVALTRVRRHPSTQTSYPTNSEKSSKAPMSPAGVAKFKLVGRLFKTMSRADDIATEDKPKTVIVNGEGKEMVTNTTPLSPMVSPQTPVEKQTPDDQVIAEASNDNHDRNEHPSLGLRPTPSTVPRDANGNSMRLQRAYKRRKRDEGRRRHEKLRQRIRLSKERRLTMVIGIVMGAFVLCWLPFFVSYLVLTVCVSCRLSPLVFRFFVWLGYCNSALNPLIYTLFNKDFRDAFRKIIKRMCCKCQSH", "assay": "Block of tyramine-induced inhibition of forskolin-stimulated cAMP levels in AmphiAmR11-expressing CHO-K1 cells", "type": "cell-based", "conditions": "1 μM antagonist, 30 nM tyramine, 10 µM forskolin"}, "AmphiAmR11 [2]": {"molecular_target": "T1, AmphiAmR11", "assay": "ERK1/2 phosphorylation in AmphiAmR11-expressing CHO-K1 cells (Western blotting)", "type": "cell-based", "conditions": "1 μM antagonist"}, "AmphiAmR11 [3]": {"molecular_target": "T1, AmphiAmR11", "assay": "Block of dopamine-induced ERK1/2 activation in AmphiAmR11-expressing CHO-K1 cells by antagonists", "type": "cell-based", "conditions": "1 µM antagonist, 10 nM dopamine, 5 min"}, "AmphiAmR4": {"tested_on": "AmphiAmR4", "parameters": "method as in PMID 23183848", "conditions": "cited from earlier work"}, "[4]": {"tested_on": "OctβRs, CG6989, CG6919 and CG7078", "parameters": "method as in PMID 15998303", "conditions": "cited from earlier work"}, "[5]": {"tested_on": "dopamine-induced ERK1/2 activation", "assay": "Effect of pertussis toxin and signalling inhibitors on agonist-induced ERK1/2 activation in AmphiAmR11-expressing CHO-K1 cells", "type": "cell-based, Chinese hamster", "conditions": "10 µM inhibitor, 10 nM dopamine, 5 minutes", "procedure": "Phospho-extracellular signal-related kinase (Phospho-ERK) levels were determined essentially as described previously. Minor modifications have been described. ERK1/2 phosphorylation levels were quantified by densitometry. The developed films were scanned in and analysed using the software program, Aida. The data generated by Aida was then processed using Microsoft Excel. Values for the kinase expression and activity levels were defined as 100% in the control samples. Student’s T-test (two-tailed and unpaired) was used to test for significance.\nFigure 5 Effect of pertussis toxin and signalling inhibitors on dopamine-induced ERK1/2 activation in AmphiAmR11-expressing CHO-K1 cells. For the pertussis toxin experiment, AmphiAmR11-expressing CHO-K1 cells were pre-incubated with pertussis toxin (200 ng/ml) for 16 hours prior to serum-starvation for 2 hours in the absence of the toxin. Cells were then stimulated for 5 mins with 10 nM dopamine (open bar) or F-12 Hams control (black bar). For all other inhibitors, AmphiAmR11-expressing CHO-K1 cells were serum starved for 2 hours including incubation with 10 µM inhibitor or F-12 Hams control for the final 20 (AG1296 and AG1478) or 30 (PP2, LY294002, Ro31-8220, U0126, U73122 and U73343) minutes. Cells were then stimulated for 5 minutes with 10 nM dopamine […] in the presence of the inhibitor. Basal measurement in the absence of dopamine and inhibitor (first black bar) and the dopamine-only response in the absence of inhibitor (first open bar) are shown. (A) Representative blots from three or four independent experiments. […] Data are expressed as the mean + SEM. n = 3 - 4. DA, dopamine; PTX, pertussis toxin; Ro, Ro 31-8220; LY, LY294002.\nFigure S3. Time courses for the effect of dopamine and tyramine on ERK1/2 phosphorylation in AmphiAmR11-expressing CHO-K1 cells. (A and B) AmphiAmR11-expressing CHO-K1 cells were serum-starved for 2 hours, prior to stimulation with tyramine or dopamine at the specified concentration for the specified length of time. Equal quantities of cell lysates were separated by SDS-PAGE and analysed for pERK or tERK by Western blotting. (C and D): AmphiAmR11-expressing CHO-K1 cells were incubated with pertussis toxin (200 ng/mL) for 16 hours followed by stimulation as described for Figures A and B. (A to D) Representative blot for each condition from three to four independent experiments. (E) Summary of the quantified blots. Data are expressed as the mean ± SEM. n = 3-4. PTX, pertussis toxin; Min, minutes."}, "D2-dopamine receptors": {"tested_on": "D2-dopamine receptors", "parameters": "method as in PMID 10531409, PMID 9572301", "conditions": "cited from earlier work"}, "D3-dopamine receptors": {"tested_on": "D3-dopamine receptors", "parameters": "method as in PMID 10531409, PMID 9572301", "conditions": "cited from earlier work"}, "CHO cell cyclic AMP": {"tested_on": "CHO cell cyclic AMP", "assay": "CHO cell cyclic AMP level after forskolin", "type": "cell-based, Chinese hamster", "conditions": "10 µM forskolin; basal 5.1 ± 1.7", "procedure": "cAMP levels in stably transfected CHO-K1 cells were determined as described previously, except 100 µM isobutylmethylxanthine (IBMX) was used. cAMP levels are represented as a percentage of basal samples unless otherwise stated. Student’s T-test (two-tailed and unpaired) was used to test for significance. Unless otherwise stated, all data are shown as mean ± SEM. Each data point plotted was the mean of data obtained from at least three experiments. Within each experiment three separate replicate wells were analysed for each condition and the cAMP assays on each of the wells was carried out in duplicate.\nForskolin was used both to increase basal cAMP levels to make it easier to detect increases and decreases in cAMP levels in the same experiments and also to potentiate responses to agonists to more accurately determine their threshold effects [see 22]. A non-saturating 10 µM concentration of forskolin was used. Basal levels of CHO cell cyclic AMP were 5.1 ± 1.7 pmoles / mg protein (n = 3) and these were raised to 1053.7 ± 4.8 pmoles / mg protein after exposure to 10 µM forskolin. Protein levels were determined using a Bradford assay."}}, "note": "Counter-ions that a name gives are not always drawn.", "data": [{"smiles": "Cc1ccc(N(CC2=NCCN2)c2cccc(O)c2)cc1", "note": "[phentolamine, phentolamine hydrochloride]", "values": [{"measurement": "Block of tyramine-induced inhibition of forskolin-stimulated cAMP levels", "setting": "AmphiAmR11 [1]", "result": "fully block"}, {"measurement": "Effect of antagonist on ERK1/2 phosphorylation in the absence of dopamine", "setting": "AmphiAmR11 [2]", "result": "did not exhibit any agonistic properties"}, {"measurement": "Block of dopamine-induced ERK1/2 activation", "setting": "AmphiAmR11 [3]", "result": "fully block"}, {"measurement": "Agonist activity at AmphiAmR4", "setting": "AmphiAmR4", "result": "agonist properties"}, {"measurement": "Agonist properties at Drosophila OctβRs", "setting": "[4]", "result": "agonist properties"}]}, {"smiles": "O=c1cc(N2CCOCC2)oc2c(-c3ccccc3)cccc12", "note": "[LY294002]", "values": [{"measurement": "Effect of inhibitor on dopamine-induced ERK1/2 phosphorylation", "setting": "[5]", "result": "significantly reduced"}, {"measurement": "Effect on D2-mediated ERK1/2 activation in CHO cells", "setting": "D2-dopamine receptors", "result": "partially reduce"}, {"measurement": "Effect on D3-mediated ERK1/2 activation in CHO cells", "setting": "D3-dopamine receptors", "result": "partially reduce"}]}, {"smiles": "C=C[C@@]1(C)CC(=O)[C@]2(O)[C@@]3(C)[C@@H](O)CCC(C)(C)[C@@H]3[C@H](O)[C@H](OC(C)=O)[C@@]2(C)O1", "note": "[forskolin, Forskolin]", "values": [{"measurement": "CHO cell cyclic AMP level after exposure to forskolin", "setting": "CHO cell cyclic AMP", "result": "1053.7 ± 4.8", "unit": "pmoles / mg protein"}]}]}
